From patent publication US7582655B2, “Antineoplastic compounds” (University of Saskatchewan, priority 2005, dated 2009)
Read-outs that look alike come from different tables or passages of the source.

Experiments:
[1] = tested on: SW 620; assay: Human tumour cell line panel, colon cancer SW 620; type: cell-based
Method: (§1) In addition, both 5-fluorouracil and melphalan were evaluated towards 57 cell lines. […] MG MID is the average of the potencies of the compound to approximately 50 neoplastic cell lines.

[2] = tested on: K 562; assay: Human tumour cell line panel, leukemic K 562; type: cell-based
Method: as §1

[3] = tested on: HSC-2, HSC-4 and HL-60 malignant cells; assay: Average CC50 for malignant cells
Method: (§2) In addition, the compounds were evaluated against human squamous cell carcinomas (HSC-2 and HSC-4) and human promyelocytic leukemia neoplasms (HL-60) and compared with normal cells, i.e. human gingival fibroblasts (HGF), human pulp cells (HPC) and human periodontal ligament fibroblasts (HPLF).
(§3) MTT stands for 3-(4,5-dimethylthiazol-2-yl)-2,5-diphenyltetrazolium bromide). The cells were incubated with varying concentrations of the compounds along with untreated cells for 24 h and the absorbance at 540 nm measured. In the case of the HL-60 assay, the trypan blue exclusion method was followed and cell viability was determined using a haemocytometer. The CC50 values were obtained from dose-response curves (Sakagami, H.; Satoh, K.; Ohata, H.; Takahashi, H.; Yoshida, H.; Iida, M.; Kuribayashi, N.; Sakagami, T.; Momose, K.; Takeda, M. Anticancer Res. 1996, 16, 2635-2644). The general methods used in culturing the cells employed in these cytotoxicity experiments have been described previously (Kawase, M.; Sakagami, H.; Motohashi, N.; Hauer, H.; Chatterjee, S. S.; Spengler, G.; Vigyikanne, A. V.; Molnár, A.; Molnár, J. In Vivo 2005, 19, 705-712; and Takeuchi, R.; Hoshijima, H.; Onuki, N.; Nagasaka, H.; Chowdhury, S. A.; Kawase, M.; Sakagami, H. Anticancer Res. 2005, 25, 4037-4042). In brief, the malignant cells were obtained from Professor Nagumo, Showa University, Japan. The HGF, HPC and HPLF cells were prepared from human periodontal tissue after obtaining informed consent according to the guidelines of Meikai University Ethics Committee, Japan (No. 0206). Since normal cells have a short lifespan, cells at the 3-7 population doubling time were used. With the exception of the HL-60 neoplasm, the cells were cultured in DMEM containing heat-inactivated FBS (10%) at 37° C. in a humidified carbon dioxide atmosphere and subcultured by trypsinization. The HL-60 cells were cultured in a similar fashion except that RPMI 1640 media was employed.

[4] = tested on: COLO 205; assay: Human tumour cell line panel, colon cancer COLO 205; type: cell-based
Method: as §1

[5] = tested on: human promyelocytic leukemia HL-60; assay: Cytotoxicity CC50, trypan blue exclusion, HL-60
Method: as §2, §3

[6] = tested on: RPMI 8226; assay: Human tumour cell line panel, leukemic RPMI 8226; type: cell-based
Method: as §1

[7] = tested on: SR; assay: Human tumour cell line panel, leukemic SR; type: cell-based
Method: as §1

[8] = tested on: HCC 2998; assay: Human tumour cell line panel, colon cancer HCC 2998; type: cell-based
Method: as §1

[9] = tested on: human gingival fibroblasts (HGF); assay: Cytotoxicity CC50, MTT assay, normal HGF cells
Method: as §2, §3

[10] = tested on: human pulp cells (HPC); assay: Cytotoxicity CC50, MTT assay, normal HPC cells
Method: as §2, §3

[11] = tested on: human periodontal ligament fibroblasts (HPLF); assay: Cytotoxicity CC50, MTT assay, normal HPLF cells
Method: as §2, §3

[12] = tested on: HCT 15; assay: Human tumour cell line panel, colon cancer HCT 15; type: cell-based; settings: read-out: Colon cancer cells, IC50(μM) HCT 15
Method: as §1

[13] = tested on: human tumour cell lines; assay: Panel of human tumour cell lines, all cell lines (mean graph midpoint); type: cell-based
Method: A number of compounds of the invention were further assessed against numerous human malignant cell lines. An average of 49 cell lines from nine different neoplastic diseases, namely leukemia, melanoma, non-small cell lung, colon, central nervous system, ovarian, renal, prostate, and breast cancers were employed.
as §1

[14] = tested on: human squamous cell carcinomas HSC-2; assay: Cytotoxicity CC50, MTT assay, HSC-2
Method: as §2, §3

[15] = tested on: human squamous cell carcinomas HSC-4; assay: Cytotoxicity CC50, MTT assay, HSC-4
Method: as §2, §3

[16] = tested on: HCT 116; assay: Human tumour cell line panel, colon cancer HCT 116; type: cell-based
Method: as §1

[17] = tested on: KM 12; assay: Human tumour cell line panel, colon cancer KM 12; type: cell-based
Method: as §1

[18] = tested on: HL 60; assay: Human tumour cell line panel, leukemic HL 60; type: cell-based
Method: as §1

[19] = tested on: murine L-5178 lymphoma cells transfected with the human MDR1 gene; assay: MDR reversal, rhodamine 123 fluorescence activity ratio; settings: FAR >1 indicates MDR reversal
Method: A solution of the test compound (2 mg/ml, 10 μl) in dimethylsulfoxide was added to aliquots of the cell suspension and incubated at room temperature for 10 minutes. […] The cells were washed twice and resuspended in PBS (pH 7.4) after which the fluorescence was measured using a Beckton Dickinson FACScan instrument. The fluorescence of the cells was measured in treated MDR cells (F1), untreated MDR cells (F2), treated parental cells (F3) […] were obtained from the following equation, viz (F1/F2)/(F3/F4).

[20] = 48 h; read-out: Colon cancer cells, IC50(μM) SW 620
[21] = 48 h; read-out: Leukemic cells, IC50(μM) K 562
[22] = average CC50 for HSC-2, HSC-4 and HL-60 malignant cells
[23] = 48 h; read-out: Colon cancer cells, IC50(μM) COLO 205
[24] = read-out: CC50(μM) HL-60, 24 h, trypan blue exclusion, average of two determinations
[25] = 48 h; read-out: Leukemic cells, IC50(μM) RPMI 8226
[26] = 48 h; read-out: Leukemic cells, IC50(μM) SR
[27] = 48 h; read-out: Colon cancer cells, IC50(μM) HCC 2998
[28] = read-out: CC50(μM) HGF, normal cells, 24 h, MTT
[29] = read-out: CC50(μM) HPC, normal cells, 24 h, MTT
[30] = read-out: CC50(μM) HPLF, normal cells, 24 h, MTT
[31] = mean graph midpoint, average of 49 (38-59) human tumour cell lines, 48 h incubation, read-out: All cell lines IC50
[32] = read-out: CC50(μM) HSC-2, 24 h, MTT, average of two determinations
[33] = read-out: CC50(μM) HSC-4, 24 h, MTT, average of two determinations
[34] = 48 h; read-out: Colon cancer cells, IC50(μM) HCT 116
[35] = read-out: Colon cancer cells, IC50(μM) KM 12
[36] = 48 h; read-out: Leukemic cells, IC50(μM) HL 60
[37] = 48 h; read-out: Colon cancer cells, IC50(μM) KM 12

Compound	IC50 [1, 20]	IC50 [2, 21]	CC50(μM) ave [3, 22]	IC50 [4, 23]	CC50 [5, 24]	IC50 [6, 25]	IC50 [7, 26]	IC50 [8, 27]	CC50 [9, 28]	CC50 [10, 29]	CC50 [11, 30]	IC50 ([12]; 48 h)	IC50 [13, 31]	CC50 [14, 32]	CC50 [15, 33]	IC50 [16, 34]	IC50 [17, 35]	IC50 [18, 36]	further results
1-[4-(2-Dimethylaminoethoxy)phenylcarbonyl]-3,5-bis(4-methylphenyl-methylene)-4-piperidone hydrochloride hemihydrate [Compound 3d]	0.562 µM	1.82 µM	1.5 µM	1.02 µM	0.85 µM	0.224 µM	0.479 µM	0.229 µM	7.9 µM	7.2 µM	3.4 µM	0.912 µM	1.15 µM	1.4 µM	2.1 µM	1.38 µM	0.776 µM	1.32 µM	–
3,5-bis(4-Chlorophenylmethylene)-1-[4-(2-dimethylaminoethoxy)phenyl-carbonyl]-4-piperidone hydrochloride hemihydrate [Compound 3b]	0.209 µM	0.331 µM	1.9 µM	1.7 µM	1.7 µM	0.098 µM	0.126 µM	0.263 µM	23 µM	11 µM	4.3 µM	0.295 µM	1.91 µM	2.3 µM	1.8 µM	6.03 µM	1.74 µM	1.41 µM	–
3,5-bis(4-Methyl phenylmethylene)-1-[4-{2-(4-morpholinyl)ethoxy}phenylcarbonyl]-4-piperidone hydrochloride hemihydrate [Compound 6d]	1.02 µM	0.275 µM	1.6 µM	1.15 µM	1.2 µM	0.115 µM	0.245 µM	–	10 µM	49 µM	12 µM	0.832 µM	< 0.708 µM	1.6 µM	2 µM	2.45 µM	1.12 µM	1.1 µM	–
O=c1[nH]cc(F)c(=O)[nH]1 [5-Fluorouracil, 5-fluorouracil, reference compound]	–	–	–	–	–	–	–	–	–	–	–	–	> 29.5 µM	–	–	–	–	–	IC50 ([1]; Homo sapiens, SW-620, 48 h; read-out: Colon cancer cells, IC50(μM) SW 620): 18.6 µM; IC50 ([2]; Homo sapiens, K562, 48 h; read-out: Leukemic cells, IC50(μM) K 562): 126 µM; IC50 ([4]; Homo sapiens, COLO 205, 48 h; read-out: Colon cancer cells, IC50(μM) COLO 205): 3.39 µM; IC50 ([6]; Homo sapiens, RPMI-8226, 48 h; read-out: Leukemic cells, IC50(μM) RPMI 8226): 3.55 µM; IC50 ([7]; Homo sapiens, SR, 48 h; read-out: Leukemic cells, IC50(μM) SR): 60.3 µM; IC50 ([8]; Homo sapiens, HCC 2998, 48 h; read-out: Colon cancer cells, IC50(μM) HCC 2998): 5.75 µM; IC50 ([12]; Homo sapiens, HCT-15, 48 h): 6.61 µM; S.I. (selectivity index) ([13]; ratio of the IC50 figures for the least and most sensitive cell lines): >4365; IC50 ([16]; Homo sapiens, HCT-116, 48 h; read-out: Colon cancer cells, IC50(μM) HCT 116): 2.04 µM; IC50 ([17]; Homo sapiens, KM12, 48 h; read-out: Colon cancer cells, IC50(μM) KM 12): 7.94 µM; IC50 ([18]; Homo sapiens, HL-60, 48 h; read-out: Leukemic cells, IC50(μM) HL 60): 85.1 µM
O=C1C(=Cc2ccccc2)CNCC1=Cc1ccccc1 [Compound 1a]	0.575 µM	0.49 µM	–	1.55 µM	–	0.275 µM	0.209 µM	2 µM	–	–	–	0.631 µM	1.62 µM	–	–	0.182 µM	–	0.363 µM	CC50(μM) ave [3]: 2.7 µM; FAR value 4 μg/ml ([19]; compound 4 μg/ml): 1.58; FAR value 40 μg/ml ([19]; compound 40 μg/ml): 2.00; CC50 [5]: 1.5 µM; CC50 [9]: 20 µM; CC50 [10]: 38 µM; CC50 [11]: 24 µM; CC50 [14]: 2.2 µM; CC50 [15]: 4.4 µM; IC50 [17, 37]: 0.794 µM
Cl.O=C1C(=Cc2ccc(Cl)cc2)CN(C(=O)c2ccc(OCCN3CCOCC3)cc2)CC1=Cc1ccc(Cl)cc1 [Compound 6b, 3,5-bis(4-Chlorophenylmethylene)-1-[4-{2-(4-morpholinyl)ethoxy}phenylcarbonyl-4-piperidone hydrochloride]	1.45 µM	6.76 µM	–	–	–	0.132 µM	–	< 0.005 µM	–	–	–	2.19 µM	< 0.562 µM	–	–	7.25 µM	–	5.5 µM	CC50 [5]: 36 µM; CC50 [9]: 400 µM; CC50 [10]: > 400 µM; CC50 [11]: 360 µM; CC50 [14]: 71 µM; CC50 [15]: 18 µM; IC50 [17, 37]: 2.29 µM
N[C@@H](Cc1ccc(N(CCCl)CCCl)cc1)C(=O)O [Melphalan, reference compound]	–	–	40.7 µM	–	–	–	–	–	> 200 µM	> 200 µM	> 200 µM	–	–	–	–	–	–	–	IC50 ([1]; Homo sapiens, SW-620, 48 h, read-out: Colon cancer cells, IC50(μM) SW 620): 38.9 µM; IC50 ([2]; Homo sapiens, K562, 48 h, read-out: Leukemic cells, IC50(μM) K 562): 43.7 µM; IC50 ([4]; Homo sapiens, COLO 205, 48 h, read-out: Colon cancer cells, IC50(μM) COLO 205): 66.1 µM; CC50 ([5]; Homo sapiens, HL-60, 24 h, read-out: CC50(μM) HL-60): 6 µM; IC50 ([6]; Homo sapiens, RPMI-8226, 48 h, read-out: Leukemic cells, IC50(μM) RPMI 8226): 66.1 µM; IC50 ([7]; Homo sapiens, SR, 48 h, read-out: Leukemic cells, IC50(μM) SR): 1.86 µM; IC50 ([8]; Homo sapiens, HCC 2998, 48 h, read-out: Colon cancer cells, IC50(μM) HCC 2998): 41.7 µM; IC50 ([13]; Homo sapiens, 48 h, read-out: All cell lines IC50(μM)): 26.9 µM; CC50 ([14]; Homo sapiens, HSC-2, 24 h, read-out: CC50(μM) HSC-2): 35 µM; CC50 ([15]; Homo sapiens, HSC-4, 24 h, read-out: CC50(μM) HSC-4): 81 µM; IC50 ([16]; Homo sapiens, HCT-116, 48 h, read-out: Colon cancer cells, IC50(μM) HCT 116): 30.2 µM; IC50 ([17]; Homo sapiens, KM12, 48 h, read-out: Colon cancer cells, IC50(μM) KM 12): 43.7 µM; IC50 ([18]; Homo sapiens, HL-60, 48 h, read-out: Leukemic cells, IC50(μM) HL 60): 2.04 µM
